{
  "source": "paper PMC7178819",
  "about": "“6,7-Dimethoxy-2-phenethyl-1,2,3,4-tetrahydroisoquinoline amides and corresponding ester isosteres as multidrug resistance reversers” (Journal of Enzyme Inhibition and Medicinal Chemistry, 2020)",
  "key": {"MRP1": {"target": "T1, MRP1 (Homo sapiens, UniProt P33527)", "T1 construct": "expressed in transfected cells; host or cells: MDCK-MRP1 (Madin-Darby Canine Kidney cells, gift of Prof. P. Borst, NKI-AVL)", "T1 sequence (P33527 whole entry)": "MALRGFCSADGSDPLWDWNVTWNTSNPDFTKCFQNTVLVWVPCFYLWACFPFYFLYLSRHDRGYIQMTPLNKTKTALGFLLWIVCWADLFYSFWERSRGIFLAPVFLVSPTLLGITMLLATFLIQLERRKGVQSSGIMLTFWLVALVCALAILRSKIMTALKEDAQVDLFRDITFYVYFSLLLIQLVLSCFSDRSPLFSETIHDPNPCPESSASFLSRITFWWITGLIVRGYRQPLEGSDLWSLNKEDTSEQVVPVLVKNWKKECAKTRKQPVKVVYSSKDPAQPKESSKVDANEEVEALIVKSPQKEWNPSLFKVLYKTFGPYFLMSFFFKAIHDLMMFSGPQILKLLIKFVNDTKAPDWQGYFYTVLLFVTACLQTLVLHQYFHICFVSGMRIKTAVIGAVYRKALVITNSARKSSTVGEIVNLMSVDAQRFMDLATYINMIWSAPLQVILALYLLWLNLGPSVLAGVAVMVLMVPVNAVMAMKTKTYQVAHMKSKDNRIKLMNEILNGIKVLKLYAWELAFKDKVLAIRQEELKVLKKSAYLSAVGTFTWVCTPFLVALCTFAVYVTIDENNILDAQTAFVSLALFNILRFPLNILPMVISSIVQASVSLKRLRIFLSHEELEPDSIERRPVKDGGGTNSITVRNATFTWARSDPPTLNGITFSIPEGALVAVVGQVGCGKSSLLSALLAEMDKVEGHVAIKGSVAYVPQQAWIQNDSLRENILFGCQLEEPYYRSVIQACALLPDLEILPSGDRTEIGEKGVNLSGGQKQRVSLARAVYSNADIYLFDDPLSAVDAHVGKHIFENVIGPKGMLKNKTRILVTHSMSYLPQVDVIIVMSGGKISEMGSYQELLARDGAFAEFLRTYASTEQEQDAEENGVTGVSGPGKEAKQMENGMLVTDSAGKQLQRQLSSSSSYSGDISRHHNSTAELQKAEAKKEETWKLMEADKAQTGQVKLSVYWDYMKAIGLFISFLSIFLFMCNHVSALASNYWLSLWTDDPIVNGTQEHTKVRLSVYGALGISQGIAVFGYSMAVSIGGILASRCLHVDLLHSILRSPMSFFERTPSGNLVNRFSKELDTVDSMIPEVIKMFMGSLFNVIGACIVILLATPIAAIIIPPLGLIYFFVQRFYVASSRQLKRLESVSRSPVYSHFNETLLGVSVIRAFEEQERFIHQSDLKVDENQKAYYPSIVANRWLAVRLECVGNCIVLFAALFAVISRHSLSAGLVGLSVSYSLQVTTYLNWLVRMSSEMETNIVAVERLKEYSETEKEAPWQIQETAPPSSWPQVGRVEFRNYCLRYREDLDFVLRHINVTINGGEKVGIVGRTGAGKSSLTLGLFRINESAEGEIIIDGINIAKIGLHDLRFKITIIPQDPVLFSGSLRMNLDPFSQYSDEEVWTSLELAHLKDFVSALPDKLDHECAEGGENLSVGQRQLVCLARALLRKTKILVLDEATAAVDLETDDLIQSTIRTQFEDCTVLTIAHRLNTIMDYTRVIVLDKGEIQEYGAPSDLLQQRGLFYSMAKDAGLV", "test": "Inhibition of Calcein-AM efflux in MDCK-MRP1 cells", "assay_type": "cell-based", "conditions": "for EC50: Calcein-AM, NA: not active; for MRP1, percentage of the effect: at a concentration of 100 μM", "protocol": "These experiments were carried out as previously described by Teodori et al. with minor modifications. Each cell line (30 000 cells per well) was seeded into black CulturePlate 96/wells plate with 100 µL medium and allowed to become confluent overnight. 100 µL of test compounds were solubilised in culture medium and added to monolayers, with final concentrations ranging from 1 nM to 100 µM. 96/Wells plate was incubated for 30 min in a humidified atmosphere 5% CO2 at 37 °C. Calcein-AM was added in 100 µL of Phosphate Buffered Saline (PBS) to yield a final concentration of 2.5 µM and plate was incubated for 30 min in a humidified atmosphere 5% CO2 at 37 °C. Each well was washed 3 times with ice cold PBS. Saline buffer was added to each well and the plate was read with Victor3 (PerkinElmer) at excitation and emission wavelengths of 485 and 535 nm, respectively. In these experimental conditions, Calcein cell accumulation in the absence and in the presence of tested compounds was evaluated and fluorescence basal level was estimated with untreated cells. In treated wells the increase of fluorescence with respect to basal level was measured. EC50 values were determined by fitting the fluorescence increase percentage versus log[dose].\nThe interaction potency between the designed compounds and P-gp was evaluated by measuring the transport inhibition of the pro-fluorescent probe Calcein-AM, that is a P-gp substrate, in a cell line overexpressing P-gp (MDCK-MDR1)[47]. The P-gp interacting profile was further investigated with two other assays: the Apparent Permeability (Papp) determination (BA/AB) in Caco-2 cell monolayer[48]^,[49], and the ATP cell depletion in the MDCK-MDR1 cell line[50]. Taking into account the results of the combined tests, an interacting compound can be classified as substrate or inhibitor. Papp determination measures the ratio between two fluxes: from the basolateral to apical compartments (BA, representative of passive diffusion) and from the apical to basolateral compartments (AB, representative of active transport). […] In the same manner, if (BA/AB) >2, the compound should probably be classified as a substrate. […] The selectivity of ligands 1–26 was evaluated by detecting their activity towards the other ABC transporters MRP1 and BCRP, by measuring the inhibition of the efflux of Calcein-AM (i.e., also a MRP1 substrate) in cells overexpressing MRP1 (MDCK-MRP1 cells), and the inhibition of the efflux of the fluorescent probe Hoechst 33342 (i.e. a BCRP substrate) in cells overexpressing BCRP (MDCK-BCRP cells), respectively."}, "P-gp": {"target": "T2, P-gp (Homo sapiens, UniProt P08183)", "T2 construct": "expressed in transfected cells; host or cells: MDCK-MDR1 (Madin-Darby Canine Kidney cells, gift of Prof. P. Borst, NKI-AVL)", "T2 sequence (P08183 whole entry)": "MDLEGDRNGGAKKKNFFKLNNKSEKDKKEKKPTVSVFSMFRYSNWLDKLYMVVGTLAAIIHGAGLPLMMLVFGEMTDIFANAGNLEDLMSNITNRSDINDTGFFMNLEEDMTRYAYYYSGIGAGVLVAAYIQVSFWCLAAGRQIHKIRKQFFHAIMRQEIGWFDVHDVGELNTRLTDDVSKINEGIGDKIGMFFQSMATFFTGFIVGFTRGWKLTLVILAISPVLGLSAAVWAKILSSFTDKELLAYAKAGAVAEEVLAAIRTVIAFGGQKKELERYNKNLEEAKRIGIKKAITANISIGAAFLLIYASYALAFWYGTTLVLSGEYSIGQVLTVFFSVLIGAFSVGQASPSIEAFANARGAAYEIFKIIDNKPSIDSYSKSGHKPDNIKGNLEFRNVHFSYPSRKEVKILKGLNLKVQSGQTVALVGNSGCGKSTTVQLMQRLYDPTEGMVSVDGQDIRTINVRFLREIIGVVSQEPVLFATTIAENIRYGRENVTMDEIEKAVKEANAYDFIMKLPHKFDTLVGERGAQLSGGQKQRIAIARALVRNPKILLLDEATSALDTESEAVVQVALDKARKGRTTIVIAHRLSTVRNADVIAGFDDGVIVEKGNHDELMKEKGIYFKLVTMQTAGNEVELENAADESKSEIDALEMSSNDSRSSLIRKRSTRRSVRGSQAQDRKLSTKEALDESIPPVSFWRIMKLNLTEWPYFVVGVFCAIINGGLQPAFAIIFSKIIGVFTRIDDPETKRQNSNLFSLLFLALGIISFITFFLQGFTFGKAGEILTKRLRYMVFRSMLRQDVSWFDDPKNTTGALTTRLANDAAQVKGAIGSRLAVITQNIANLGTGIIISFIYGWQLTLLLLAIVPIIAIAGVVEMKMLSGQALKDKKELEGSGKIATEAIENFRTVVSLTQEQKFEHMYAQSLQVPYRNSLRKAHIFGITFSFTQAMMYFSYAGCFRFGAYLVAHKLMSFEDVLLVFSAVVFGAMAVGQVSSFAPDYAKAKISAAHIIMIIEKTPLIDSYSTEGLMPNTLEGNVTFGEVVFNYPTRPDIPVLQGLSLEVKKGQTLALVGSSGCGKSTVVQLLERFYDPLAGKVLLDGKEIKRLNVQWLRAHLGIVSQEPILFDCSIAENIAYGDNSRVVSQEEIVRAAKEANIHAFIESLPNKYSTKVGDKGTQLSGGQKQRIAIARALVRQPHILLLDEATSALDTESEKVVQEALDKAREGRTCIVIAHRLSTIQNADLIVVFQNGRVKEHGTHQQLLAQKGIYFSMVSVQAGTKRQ", "test": "ATP cell depletion (ATPlite assay) in MDCK-MDR1 cells", "assay_type": "cell-based", "conditions": "Yes/No", "summary_of_the_method": "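MDCK-MDR1 cells seeded at 20,000 per well and grown overnight were treated 2 h at 37 °C, 5% CO2 with compounds at 1 to 100 µM. After cell lysis and substrate addition, luminescence was measured following ten minutes of dark adaptation as the readout of cellular ATP.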"}, "[1]": {"test": "Apparent permeability (Papp) determination (BA/AB) in Caco-2 cell monolayer", "assay_type": "in vitro ADME", "conditions": "human, Caco-2 monolayer", "summary_of_the_method": "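Caco-2 monolayers cultured 21 days (TEER monitored, >1000 Ω optimal); compounds added at 100 µM in HBSS to the filter well, 120 min at 37 °C, then apical and basolateral sides sampled. Papp ratio BA/AB computed; ratio >2 taken as indicating P-gp substrate.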"}, "[2]": {"test": "Stability test in human plasma (LC-MS/MS)", "assay_type": "in vitro ADME", "conditions": "human, human plasma, 1 µM, 37 °C", "summary_of_the_method": "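Analyte at 1 µM in human plasma or PBS; after incubation, internal standard added, centrifuged, supernatant dried and redissolved in formic acid/acetonitrile 80:20. LC-MS/MS in MRM mode; first-order degradation rate k taken as slope of ln concentration versus incubation time.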"}, "HT29 cells": {"system": "HT29 cells", "test": "Co-administration assay with doxorubicin (MTT), HT29 cells", "assay_type": "cell-based, human", "conditions": "compound 10 µM + 10 µM doxorubicin", "protocol": "(§1) The co-administration assay with doxorubicin was performed in MDCK-MDR1, HT29, HT29/DX, A549 and A549/DX cells at 48 h. On day 1, 10,000 cells/well were seeded into 96-well plates in a volume of 100 µL of fresh medium. On day 2, the tested drug was added alone to the cells at different concentrations (ranging from 40 nM to 10 µM). On day 3, the medium was removed and the drug at the same concentrations was added alone and in co-administration with 10 µM doxorubicin to the cells. After the established incubation time with the tested drug, MTT (0.5 mg/mL) was added to each well, and after 3 − 4 h incubation at 37 °C, the supernatant was removed. The formazan crystals were solubilised using 100 µL of DMSO/EtOH (1:1), and the absorbance values at 570 and 630 nm were determined on the microplate reader HTX Synergy (Bio-Tek Instruments)."}, "A549/DX cells": {"system": "A549/DX cells", "test": "Co-administration assay with doxorubicin (MTT), A549/DX cells", "assay_type": "cell-based, human", "conditions": "compound 10 µM + 10 µM doxorubicin", "protocol": "as §1"}},
  "note": "Marks after values point to notes of the source that are not given here.",
  "data": [
    {"molecule": "COc1cc2c(cc1OC)CN(CCc1ccc(OC(=O)c3ccc(OC)c(OC)c3OC)cc1)CC2", "note": "[Compound 14, 4–(2-(6,7-Dimethoxy-3,4-dihydroisoquinolin-2(1H)-yl)ethyl)phenyl 2,3,4-trimethoxybenzoate]", "values": [
      {"measurement": "EC50", "setting": "MRP1", "value": "69.7 ± 13.9", "unit": "µM"},
      {"measurement": "ATP cell depletion", "setting": "P-gp", "value": "No"},
      {"measurement": "efflux ratio at 120 min, 100 µM", "setting": "[1]", "value": 9},
      {"measurement": "half-life at 1 µM", "setting": "[2]", "value": "≥ 4", "unit": "h"}
    ]},
    {"molecule": "COc1cc2c(cc1OC)CN(CCc1ccc(NC(=O)c3c(OC)c(OC)cc4ccccc34)cc1)CC2", "note": "[Compound 8, N-(4–(2-(6,7-dimethoxy-3,4-dihydroisoquinolin-2(1H)-yl)ethyl)phenyl)-2,3-dimethoxy-1-naphthamide]", "values": [
      {"measurement": "MRP1, percentage of the effect", "setting": "MRP1", "value": 47, "unit": "%^d"},
      {"measurement": "ATP cell depletion", "setting": "P-gp", "value": "No"},
      {"measurement": "efflux ratio at 120 min, 100 µM", "setting": "[1]", "value": 5.5},
      {"measurement": "half-life at 1 µM", "setting": "[2]", "value": "≥ 4", "unit": "h"},
      {"measurement": "reduction of cell viability, co-administration with doxorubicin", "setting": "HT29 cells", "value": 10, "unit": "%"},
      {"measurement": "reduction of cell viability, co-administration with doxorubicin", "setting": "A549/DX cells", "value": 49, "unit": "%"}
    ]},
    {"molecule": "COc1cc2c(cc1OC)CN(CCc1ccc(NC(=O)c3cccc(OC)c3OC)cc1)CC2", "note": "[Compound 5, N-(4–(2-(6,7-dimethoxy-3,4-dihydroisoquinolin-2(1H)-yl)ethyl)phenyl)-2,3-dimethoxybenzamide]", "values": [
      {"measurement": "ATP cell depletion", "setting": "P-gp", "value": "No"},
      {"measurement": "efflux ratio at 120 min, 100 µM", "setting": "[1]", "value": 5},
      {"measurement": "half-life at 1 µM", "setting": "[2]", "value": "≥ 4", "unit": "h"}
    ]},
    {"molecule": "COc1cc2c(cc1OC)CN(CCc1ccc(OC(=O)c3cccc(OC)c3OC)cc1)CC2", "note": "[Compound 18, 4–(2-(6,7-Dimethoxy-3,4-dihydroisoquinolin-2(1H)-yl)ethyl)phenyl 2,3-dimethoxybenzoate]", "values": [
      {"measurement": "ATP cell depletion", "setting": "P-gp", "value": "No"},
      {"measurement": "efflux ratio at 120 min, 100 µM", "setting": "[1]", "value": 4.1},
      {"measurement": "half-life at 1 µM", "setting": "[2]", "value": "0.9 ± 0.15", "unit": "h"}
    ]},
    {"molecule": "COc1cc2c(cc1OC)CN(CCc1ccc(OC(=O)c3c(OC)c(OC)cc4ccccc34)cc1)CC2", "note": "[Compound 21, 4–(2-(6,7-Dimethoxy-3,4-dihydroisoquinolin-2(1H)-yl)ethyl)phenyl 2,3-dimethoxy-1-naphthoate]", "values": [
      {"measurement": "ATP cell depletion", "setting": "P-gp", "value": "No"},
      {"measurement": "efflux ratio at 120 min, 100 µM", "setting": "[1]", "value": 5.4},
      {"measurement": "half-life at 1 µM", "setting": "[2]", "value": "≥ 4", "unit": "h"}
    ]},
    {"molecule": "COc1cc2c(cc1OC)CN(CCc1ccc(OC(=O)c3ccccc3OC)cc1)CC2", "note": "[Compound 15, 4–(2-(6,7-Dimethoxy-3,4-dihydroisoquinolin-2(1H)-yl)ethyl)phenyl 2-methoxybenzoate]", "values": [
      {"measurement": "ATP cell depletion", "setting": "P-gp", "value": "No"},
      {"measurement": "efflux ratio at 120 min, 100 µM", "setting": "[1]", "value": 5.4},
      {"measurement": "half-life at 1 µM", "setting": "[2]", "value": "1.05 ± 0.233", "unit": "h"}
    ]},
    {"molecule": "COc1cc2c(cc1OC)CN(CCc1ccc(NC(=O)c3ccc(OC)c(OC)c3OC)cc1)CC2", "note": "[Compound 1, N-(4–(2-(6,7-dimethoxy-3,4-dihydroisoquinolin-2(1H)-yl)ethyl)phenyl)-2,3,4-trimethoxybenzamide]", "values": [
      {"measurement": "ATP cell depletion", "setting": "P-gp", "value": "No"},
      {"measurement": "efflux ratio at 120 min, 100 µM", "setting": "[1]", "value": 7},
      {"measurement": "half-life at 1 µM", "setting": "[2]", "value": "≥ 4", "unit": "h"}
    ]},
    {"molecule": "COc1cc2c(cc1OC)CN(CCc1ccc(OC(=O)c3c(OC)ccc4ccccc34)cc1)CC2", "note": "[Compound 20, 4–(2-(6,7-Dimethoxy-3,4-dihydroisoquinolin-2(1H)-yl)ethyl)phenyl 2-methoxy-1-naphthoate]", "values": [
      {"measurement": "ATP cell depletion", "setting": "P-gp", "value": "No"},
      {"measurement": "efflux ratio at 120 min, 100 µM", "setting": "[1]", "value": 4.8},
      {"measurement": "half-life at 1 µM", "setting": "[2]", "value": "≥ 4", "unit": "h"}
    ]},
    {"molecule": "COc1ccc(C(=O)Nc2ccc(CCN3CCc4cc(OC)c(OC)cc4C3)cc2)c(OC)c1", "note": "[Compound 3, N-(4–(2-(6,7-dimethoxy-3,4-dihydroisoquinolin-2(1H)-yl)ethyl)phenyl)-2,4-dimethoxybenzamide]", "values": [
      {"measurement": "MRP1, percentage of the effect", "setting": "MRP1", "value": 31, "unit": "%^d"},
      {"measurement": "ATP cell depletion", "setting": "P-gp", "value": "No"},
      {"measurement": "efflux ratio at 120 min, 100 µM", "setting": "[1]", "value": 7.4},
      {"measurement": "half-life at 1 µM", "setting": "[2]", "value": "≥ 4", "unit": "h"},
      {"measurement": "reduction of cell viability, co-administration with doxorubicin", "setting": "HT29 cells", "value": 5, "unit": "%"},
      {"measurement": "reduction of cell viability, co-administration with doxorubicin", "setting": "A549/DX cells", "value": 40, "unit": "%"}
    ]},
    {"molecule": "COc1ccc(C(=O)Oc2ccc(CCN3CCc4cc(OC)c(OC)cc4C3)cc2)c(OC)c1", "note": "[Compound 16, 4–(2-(6,7-Dimethoxy-3,4-dihydroisoquinolin-2(1H)-yl)ethyl)phenyl 2,4-dimethoxybenzoate]", "values": [
      {"measurement": "EC50", "setting": "MRP1", "value": "87 ± 17", "unit": "µM"},
      {"measurement": "ATP cell depletion", "setting": "P-gp", "value": "No"},
      {"measurement": "efflux ratio at 120 min, 100 µM", "setting": "[1]", "value": 7.1},
      {"measurement": "half-life at 1 µM", "setting": "[2]", "value": "1.47 ± 0.367", "unit": "h"}
    ]},
    {"molecule": "COc1cc2c(cc1OC)CN(CCc1ccc(OC(=O)c3cccc4ccccc34)cc1)CC2", "note": "[Compound 19, 4–(2-(6,7-Dimethoxy-3,4-dihydroisoquinolin-2(1H)-yl)ethyl)phenyl 1-naphthoate]", "values": [
      {"measurement": "ATP cell depletion", "setting": "P-gp", "value": "No"},
      {"measurement": "efflux ratio at 120 min, 100 µM", "setting": "[1]", "value": 5.1},
      {"measurement": "half-life at 1 µM", "setting": "[2]", "value": "≥ 4", "unit": "h"}
    ]}
  ]
}
